According to patent US12156877B1, “Methods of treating conditions related to a thiamine deficiency, a thiamine-dependent enzyme, or an associated cofactor” (The Regents of the University of California, priority 2019, dated 2024):

Experiments:
WKS mouse models = test: Body weight and disease onset of WKS mouse model (0 ppm thiamine and pyrithiamine injections) in normoxia versus hypoxia; format: in vivo, mice
Protocol: FIG. 3 depicts the body weight of Wernicke-Korsakoff (WKS) Animal Model (0 ppm thiamine and pyrithiamine injections) in normoxia versus hypoxia using the methods described herein.
Hypoxia and moderate hyperoxia exposure were tested in these mouse models of WK syndrome. Six groups of mice for each different oxygen exposure will be used—(no disease, moderate disease, extreme disease)×(with or without thiamine treatment starting day 10 of the disease model). […] This sample size should be sufficient to detect a 30% increase in survival with 80% power. Disease progression in these different conditions will be carefully monitored. Daily body weights from the beginning of treatment will be taken. Additionally, behavior was monitored on a weekly basis using rotarod tests, open field experiments and the Y-maze memory test. For 3 mice per group, T2-weighted MRI scans was performed once per week. This will allow the monitoring of the disease progression and reversal. For a separate set of 3 mice per group, mice were sacked, and neuropathology performed, staining for neuronal cell loss (using NeuN) or neuroinflammatory signatures (using antibodies against GFAP) similar to that performed in Jain et. al.
FIG. 3 depicts the results of WKS mouse models being treated at 21% O2 (normoxia) and 11% O2 (hypoxia) for a span of 20 days. […] Hypoxia began on Day 3 of the experiment.

[1] = tested on: mice with thiamine-deficiency; test: Symptoms caused by thiamine deficiency (blood lactate, grip strength, body temperature) under different oxygen tensions; format: in vivo
Excerpt: FIGS. 6A-6E depict the results of lowering FiO2 on the symptoms caused by thiamine deficiency. Blood lactate measured in mice housed under different oxygen tensions 21 and 35 days after the diets started. […] Muscle strength assessed by grip strength of mice administered with 17 ppm or 0 ppm thiamine for 21 days. Muscle strength is compromised in mice with thiamine-deficiency under 55% and 21% oxygen (FIG. 6C). […] Student's t-test * p<0.05, ** p<0.01, […]. While the present invention has been described with reference to the specific embodiments thereof, it should be understood by those skilled in the art that various changes may be made and equivalents may be substituted without departing from the true spirit and scope of the invention. In addition, many modifications may be made to adapt a particular situation, material, composition of matter, process, process step or steps, to the objective, spirit and scope of the present invention. All such modifications are intended to be within the scope of the claims appended hereto.

[2] = tested on: mice on a thiamine-deficient diet
[3] = tested on: mouse models for Wernicke-Korsakoff syndrome; details: 500 mg thiamine 3×/day; both models (thiamine-deficient diet, with or without pyrithiamine); cited from earlier work

## O=O [O2, oxygen]
WKS mouse models; 11% O2 (hypoxia) begun on Day 3, span of 20 days, versus 21% O2 (normoxia)
  disease onset (physiological signs of WKS): prevented disease onset
WKS mouse models; 11% O2 (hypoxia), body-weight at 21% O2 dropped significantly at Day 14
  significant drop of body-weight at Day 14: did not
[1]; 11% O2, thiamine-deficient diet for 43 days, mice under normoxic air exhibit hypothermia
  body temperature: normal body temperatures
[1]; 55% oxygen, 0 ppm thiamine for 21 days
  muscle strength assessed by grip strength: compromised
[1]; 55% oxygen, day 21 and day 35 after the diets started, severe disease state
  blood lactate: lactic acidosis
[2]; 8% O2 (extreme hypoxia)
  onset of weight loss: further delayed the onset of weight loss
  survival at 60 days after start of thiamine-deficient diet: some mice were still alive at 60 days
  survival time: extended the survival time
[2]; 11% O2, versus 21% O2 (median survival time 37 days)
  extension of survival time: approximately 13 days
[2]; 11% O2, versus 21% O2 (weight loss began at 21 days)
  rate of body weight loss: lost body weight at a slower rate
[2]; 55% O2
  disease progression: exacerbated the disease progression

## Cc1ncc(C[n+]2csc(CCO)c2C)c(N)n1 [thiamine]
[3]
  disease progression in thiamine-deficiency models: can be reversed
